Measurements published in US20220402980A1, “CHROMOGRANIN A-DERIVED PEPTIDES AND USES THEREOF” (OSPEDALE SAN RAFFAELE S.R.L., priority 2019, published 2022).
Where a SMILES comes first, the peptide text is derived from it.

What was measured:
[1] = molecular target: T1, αvβ6 (Homo sapiens, UniProt P06756+P18564); assay: Competitive integrin binding assay (isoDGR/STV-HRP probe), αvβ6-coated plates; conditions: Table 3a and text; ± standard error of the mean; read-out: Ki αvβ6
T1 construct: recombinant human αvβ6 extracellular domain (R&D Systems); purchased R&D Systems (Minneapolis, Minn.)
Experimental: (§1) Peptide binding was measured by a competitive binding assay using as integrin probe a complex made by a N-terminal acetylated isoDGR peptide biotinylated at the E-amino group of the lysine, acetyl-Ciso[…]-bio (SEQ ID No. 29), and a streptavidin-peroxidase conjugate (called isoDGR/STV-HRP)[43].
(§2) Each mixture was then added to integrin-coated wells and left to incubate for 2 h at room temperature. After washing with 25 mM Tris-HCl, pH 7.4, containing 150 mM sodium chloride, 1 mM magnesium chloride, 1 mM manganese chloride, each well was filled with a chromogenic solution (o-phenylenediamine dihydrochloride) and left to incubate for 30 min at room temperature. The chromogenic reaction was stopped by adding 1 N sulfuric acid. The absorbance at 490 nm was then measured using a microtiterplate reader. Ki values were calculated by non-linear regression analysis of competitive binding data using the “One site - Fit Ki” equation of the GraphPad Prism Software using the Kd values of the probe indicated above.

[2] = molecular target: αvβ8 (Homo sapiens, UniProt P06756+P26012); assay: Competitive integrin binding assay (isoDGR/STV-HRP probe), αvβ8-coated plates; conditions: Table 3a and text; ± standard error of the mean; read-out: Ki αvβ8
Experimental: as §1, §2

[3] = molecular target: T2, αvβ5 (Homo sapiens, UniProt P06756+P18084); assay: Competitive integrin binding assay (isoDGR/STV-HRP probe), αvβ5-coated plates; conditions: Table 3a; ± standard error of the mean
T2 construct: purchased Immunological Sciences (Rome, Italy)
Experimental: as §1, §2

[4] = molecular target: T3, αvβ6 on human bladder cancer 5637 cells (Homo sapiens, UniProt P06756+P18564); assay: Effect of peptides on binding of anti-αvβ6 mAb 10D5 to 5637 cells (FACS); assay type: cell-based; conditions: competition with mAb 10D5
T3 construct: cell-surface expressed αvβ6 on human bladder cancer 5637 cells; host or cells: human bladder cancer 5637 cells

[5] = molecular target: T4, αvβ6 on human keratinocytes (HaCat) (Homo sapiens, UniProt P06756+P18564); assay: Effect of peptides on binding of anti-αvβ6 mAb 10D5 to HaCaT cells (FACS); assay type: cell-based; conditions: competition with mAb 10D5
T4 construct: endogenous in cells; host or cells: human skin keratinocytes HaCaT

[6] = system: human bladder carcinoma 5637 cells; assay: 5637 cell viability (PrestoBlue); assay type: cell-based; conditions: 48 h
Experimental: FIG. 12. Effect of peptides 4 and 5 on human bladder carcinoma 5637 cell viability. 5637 cells were seeded in a 96-well microtiterplate (20,000 cell/well) and cultured for 16 h at 37° C., 5% CO2. The day after the indicated doses of peptide 4 and 5 were added to the cells and left to incubate for additionally 48 h at 37° C., 5% CO2. Cell viability was assessed using the PrestoBlue* cell viability reagent (ThermoFisher) according to the manufacturer's instructions. Viability of the treated cells was normalized to that of untreated cells and is reported as a percentage (mean±SE of triplicate wells).

[7] = Peptide stability in mouse liver microsomal preparations (RP-HPLC); assay type: in vitro ADME; conditions: C57BL/6, mouse, liver microsomes; 37° C.; read-out: t1/2 in mouse liver microsomes (converted)
Experimental: FIG. 14. Stability of peptides 4 and 5 in murine liver microsomes as determined by RP-HPLC. a) RP-HPLC of 4 and 5 after incubation at 37° C. in murine liver microsomes. Peak 1 corresponds to 4 and 5. The peptides were added to murine liver microsomes (454 - μg/ml, final concentration) and incubated for the indicated time, diluted with an equal volume of 90% acetonitrile containing 0.1% TFA and analyzed onto a LiChrospher C18 column (16 ag). No peptide indicates liver microsome aliquot without the peptide. b) Quantification of Peak 1 area (left panel) and height (right panel) of the indicated peptides. The corresponding half-life is also shown.
The stability of compound 4 and 5 in mouse liver microsomal preparations was assessed by HPLC analysis. To this aim microsomes were prepared as follows: 11 g of mouse liver tissue (C57BL/6 mice) was homogenized in cold PBS supplemented with 0.25 M sucrose (3 ml/g of tissue) using a Potter-Elvehjem homogenizer (10 strokes), followed by additional homogenization using a rotor-stator homogenizer (40 sec). The homogenate was filtered through 70 pm cell-strainers, centrifuged three times to remove insoluble materials (500 x g, 5 min; 3000 x g, 30 min; 110000 x g, 90 min, 4° C.). […] Protein concentration was measured by measuring the absorbance at 280 nm with a NanoDrop spectrophotometer (Thermo Scientific). […]

[8] = molecular target: T5, α5β1 (Homo sapiens, UniProt P05556+P08648); assay: Competitive integrin binding assay (isoDGR/STV-HRP probe), α5β1-coated plates
T5 construct: purchased Immunological Sciences (Rome, Italy)
Experimental: as §1, §2

SMILES | Ki [1] [nM] | Ki [2] [nM] | Ki [3] [nM] | binding to cell-surface expressed αvβ6 [4] | binding to cell-surface expressed αvβ6 [5] | cytotoxicity in vitro [6] | half-life at 454 μg/ml [7] [h] | Ki [8] [nM]
CC[C@H](C)[C@H](NC(=O)[C@H](CCCNC(=N)N)NC(=O)[C@H](CC(C)C)NC(=O)[C@H](CC(=O)O)NC(=O)CNC(=O)[C@H](CCCNC(=N)N)NC(=O)[C@H](CC(C)C)NC(=O)[C@@H](NC(=O)[C@H](CCC(=O)O)NC(=O)[C@@H](N)Cc1ccccc1)[C@@H](C)O)C(=O)N[C@@H](CC(C)C)C(=O)N[C@@H](CO)C(=O)N[C@H](C(=O)N[C@@H](CC(C)C)C(=O)N[C@@H](CCCNC(=N)N)C(=O)N[C@@H](Cc1c[nH]cn1)C(=O)N[C@@H](CCC(N)=O)C(=O)N[C@@H](CC(N)=O)C(=O)N[C@@H](CC(C)C)C(=O)N[C@@H](CC(C)C)C(=O)N[C@@H](CCCCN)C(=O)N[C@@H](CCC(=O)O)C(=O)N[C@@H](CC(C)C)C(=O)N[C@@H](CCC(N)=O)C(=O)N[C@@H](CC(=O)O)C(=O)O)[C@@H](C)CC [peptide 4] (H-FETLRGDLRILSILRHQNLLKELQD-OH; N-terminus and C-terminus assumed) | 1.6 ± 0.3 | 8.5 ± 3.7 | 2410 ± 1590 | bound cell-surface expressed αvβ6 | bound cell-surface expressed αvβ6 | not cytotoxic | 1.3 | 
CC(C)C[C@H](NC(=O)[C@H](CC(=O)O)NC(=O)CNC(=O)[C@H](CCCNC(=N)N)NC(=O)[C@H](CC(C)C)NC(=O)[C@H](CC(N)=O)NC(=O)[C@@H]1CCCN1C(=O)[C@@H](NC(=O)[C@H](C)NC(=O)[C@@H](N)CC(N)=O)C(C)C)C(=O)N[C@@H](CCC(N)=O)C(=O)N[C@H](C(=O)N[C@@H](CC(C)C)C(=O)N[C@@H](C)C(=O)N[C@@H](CCC(N)=O)C(=O)N[C@@H](CCCCN)C(=O)N[C@H](C(=O)N[C@@H](C)C(=O)N[C@@H](CCCNC(=N)N)C(=O)N[C@H](C(=O)O)[C@@H](C)O)C(C)C)C(C)C [peptide 6] |  |  |  |  |  |  |  | 2317 ± 10
